Reference: patent US20230226212A1, “MUSCLE-TARGETING COMPLEXES AND USES THEREOF” (Dyne Therapeutics, Inc., priority 2020, published 2023)
Read-outs that look alike come from different tables or passages of the source. Values belong to the substance of their own block, whether it stands above or below them.

Columns and labels:
DMPK [1] = assay: DMPK knockdown by unconjugated PMOs in primary human myotubes (Example 23); format: cell-based; settings: unconjugated PMO; 3 days; qPCR
Experimental: Additional DMPK targeting oligonucleotides (PMOs) were designed and tested for their activity in reducing DMPK expression in primary human myotubes. Wild-type primary myoblasts were cultured in PromoCell Skeletal Muscle growth medium with 5% FBS and penicillin/streptomycin until nearly confluent. Cells were then seeded into a 96 well plate at 50000 cells per well and allowed to recover for 24 hours. Cells were then differentiated in a differentiation medium of DMEM with glutamine and penicillin/streptomycin for 7 days. Cells were then treated with the unconjugated PMO for 3 days. Total RNA was collected from cells, cDNA was synthesized and DMPK expression was measured by qPCR.

DMPK [2] = assay: DMPK transcript knockdown by oligonucleotides in RD cells (Example 21); format: cell-based; settings: free or transfected oligonucleotide, 3 days, relative to PBS-treated cells
Experimental: DMPK-targeting oligonucleotides (e.g., ASO) were tested in rhabdomyosarcoma (RD) cells for knockdown of DMPK transcript expression. RD cells were cultured in a growth medium of DMEM with glutamine, supplemented with 10% FBS and penicillin/streptomycin until nearly confluent. Cells were then seeded into a 96 well plate at 20 K cells per well and were allowed to recover for 24 hours. Cells were then treated with free DMPK-targeting oligonucleotides or by transfection of the oligonucleotides using 0.3 µL per well of Lipofectamine MessengerMAX transfection reagent. After 3 days, total RNA was collected from cells, cDNA was synthesized and DMPK expression was measured by qPCR.

DMPK [3] = assay: DMPK expression in NHP myotubes (Example 15); format: cell-based; settings: dose-responsive
Description: (§1) The antisense oligonucleotides were further assessed to identify oligos that are safe in vivo (e.g., as indicated by low immunogenicity as measured by cytokine induction), and further based on manufacturability and secondary structure considerations. Three antisense oligonucleotides, […] (SEQ ID NO: 329, DMPK-ASO-1), […] (SEQ ID NO: 330, DMPK-ASO-2), and […] (SEQ ID NO: 331, DMPK-ASO-3) were selected. These oligonucleotides were then further evaluated for their ability to reduce DMPK expression in DM1 myotubes and NHP myotubes in a dose-responsive manner. The tool compound control DMPK-ASO was used as control.

DMPK [4] = assay: DMPK expression in DM1 myotubes (Example 15); format: cell-based; settings: dose-responsive
Description: as §1

mdx mice [5] = assay: cage running wheel test in mdx mice (Example 14); format: in vivo, mouse; settings: single i.v. dose 30 mg/kg, four weeks after injection, 24-hour period
Experimental: (§2) Each experimental condition was replicated in five mdx mice. Five wild-type mice (healthy mice) were also dosed with vehicle control (saline).
Four weeks after injection, the activity of all treated mice was determined using a cage running wheel test. Each mouse was individually placed into cages with a running wheel for a 24-hour period. The 24-hour period involved five hours of light on followed by thirteen hours of darkness, and ending with six hours of light. The total distance traveled (in meters, m) by each mouse on the running wheel was continuously collected throughout the 24-hour period and subsequently binned into discrete one-hour increments.

mdx mice [6] = assay: open field chamber with hind limb fatigue challenge in mdx mice (Example 14); format: in vivo, mouse; settings: single i.v. dose 30 mg/kg, two weeks after injection, hind limb fatigue challenge between stages
Experimental: as §2
Two weeks after injection, the functional activity of all treated mice was determined using an open field chamber experiment. The experiment involved three consecutive stages: (1) a 10-minute period during which each mouse was placed into an open field chamber; (2) a 10-minute period during which each mouse was subjected to a hind limb fatigue challenge; and (3) a 10-minute period during which each mouse was placed into an open field chamber. The total horizontal distances traveled during stages (1) and (3) were collected. The percent change in the total distance traveled between the first and second tests.

creatine kinase = creatine kinase activity levels in mdx mice (Example 14); format: in vivo, mouse; settings: single i.v. dose 30 mg/kg, two and four weeks after injection
Experimental: as §2
All mice in this Example were further tested for creatine kinase activity levels two weeks and four weeks after injection.

DUX4 [7] = assay: expression of DUX4-associated genes in FSHD patient-derived myotubes (Example 26); format: cell-based
Experimental: FSHD patient-derived myotubes were treated with FM-10 conjugated to an anti-TfRl Fab or naked FM-10. FM-10 has the sequence 5′-[…]-3′ (SEQ ID NO: 260). Expression of mRNA transcribed from three genes known to be only expressed following DUX4 activation was subsequently measured in the myotubes. Expression of these three DUX4-associated genes was reduced, as shown in FIG. 41A (naked oligonucleotide) and 41B (Ab-oligonucleotide).

DUX4 [8] = assay: expression of downstream DUX4 genes in U-2 OS cells (Example 12); format: cell-based, human; settings: 72 hours
Experimental: Human U-2 OS cells were dosed with the complex. Briefly, U-2 OS cells were seeded at a density of 10 k cells/well before being allowed to recover overnight. […] Cells were incubated for 72 hours before being harvested for total RNA. cDNA was then synthesized from the total RNA extracts and qPCR was performed to determine expression of downstream DUX4 genes (ZSCAN4, MBD3L2, TRIM43) in technical quadruplicate. All qPCR data were analyzed using a standard ΔΔCT method and were normalized to a plate-based negative control comprised of untreated cells (i.e., without any oligonucleotide). Results were then converted to fold change to evaluate efficacy.

[9] = biological target: human transferrin receptor 1 (human) (UniProt P02786); assay: Carterra LSA biosensor, IgG captured on anti-IgG lawn, hTfR1 injected, 25C, 1:1 fit
Sequence of human transferrin receptor 1 (human) (P02786 89-760 limits assumed): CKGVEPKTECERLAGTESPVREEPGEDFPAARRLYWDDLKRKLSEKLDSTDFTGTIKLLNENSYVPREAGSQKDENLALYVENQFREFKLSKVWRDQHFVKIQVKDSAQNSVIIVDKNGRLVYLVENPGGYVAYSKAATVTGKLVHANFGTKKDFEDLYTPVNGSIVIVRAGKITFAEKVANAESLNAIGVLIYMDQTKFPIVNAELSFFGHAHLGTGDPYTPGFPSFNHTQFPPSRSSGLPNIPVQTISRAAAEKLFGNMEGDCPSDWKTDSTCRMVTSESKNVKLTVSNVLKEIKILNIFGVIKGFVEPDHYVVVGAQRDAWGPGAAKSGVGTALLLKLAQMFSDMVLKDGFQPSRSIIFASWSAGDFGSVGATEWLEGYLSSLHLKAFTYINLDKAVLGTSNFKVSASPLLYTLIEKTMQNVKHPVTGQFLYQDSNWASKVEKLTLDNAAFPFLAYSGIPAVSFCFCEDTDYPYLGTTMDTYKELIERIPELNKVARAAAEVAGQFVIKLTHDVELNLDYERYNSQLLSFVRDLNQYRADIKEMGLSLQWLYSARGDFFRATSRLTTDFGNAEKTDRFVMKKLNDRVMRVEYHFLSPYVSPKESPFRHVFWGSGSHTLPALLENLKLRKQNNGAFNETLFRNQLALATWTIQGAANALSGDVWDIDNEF

Substance: ACGATGGGCTCCGCTGGG (SEQ ID NO: 316) (all phosphorodiamidate morpholino (PMO)) [PMO 8, DMPK-targeting PMO, Exon 2]
% DMPK Knockdown in Primary Human Myotubes (DMPK [1]): 60%

Substance: AGGGCAGTGCTTACCTGAGGG (SEQ ID NO: 326) (all phosphorodiamidate morpholino (PMO)) [PMO 41, DMPK-targeting PMO, Intron 9-10]
% DMPK Knockdown in Primary Human Myotubes (DMPK [1]): 57%

Substance: AGGTACTGAGAAGGGTTCGTC (SEQ ID NO: 319) (all phosphorodiamidate morpholino (PMO)) [PMO 11, DMPK-targeting PMO, Exon 5]
% DMPK Knockdown in Primary Human Myotubes (DMPK [1]): 40%

Substance: ATGACCAGGTACTGAGAAGGG (SEQ ID NO: 318) (all phosphorodiamidate morpholino (PMO)) [PMO 10, DMPK-targeting PMO, Exon 5]
% DMPK Knockdown in Primary Human Myotubes (DMPK [1]): 33%

Substance: ATGGGCTCCGCTGGGTGGTGG (SEQ ID NO: 315) (all phosphorodiamidate morpholino (PMO)) [PMO 7, DMPK-targeting PMO, Exon 2]
% DMPK Knockdown in Primary Human Myotubes (DMPK [1]): 11%

Substance: CAGGTGACAGTTCAGGTGCAG (SEQ ID NO: 309) (all phosphorodiamidate morpholino (PMO)) [PMO 1, DMPK-targeting PMO, intron 1-2]
% DMPK Knockdown in Primary Human Myotubes (DMPK [1]): 59%

Substance: CCACCCTCTGTCTGTCTCC (SEQ ID NO: 313) (all phosphorodiamidate morpholino (PMO)) [PMO 5, DMPK-targeting PMO, intron 1-2]
% DMPK Knockdown in Primary Human Myotubes (DMPK [1]): 64%

Substance: CCATCCTTGGGCAGAGACCT (SEQ ID NO: 317) (all phosphorodiamidate morpholino (PMO)) [PMO 9, DMPK-targeting PMO, Intron 4-5]
% DMPK Knockdown in Primary Human Myotubes (DMPK [1]): 41%

Substance: CCAUCUCGGCCGGAAUCCGC (SEQ ID NO: 331) (chemistry not given here) [DMPK-ASO-3, DMPK-targeting antisense oligonucleotide]
DMPK expression level (DMPK [2]): reduced | reduction of DMPK expression in NHP myotubes (DMPK [3]): dose-dependently reducing DMPK | reduction of DMPK expression in DM1 myotubes (DMPK [4]): dose-dependently reducing DMPK

Substance: CCCAGCGCCCACCAGUCACA (SEQ ID NO: 330) (chemistry not given here) [DMPK-ASO-2, DMPK-targeting antisense oligonucleotide]
DMPK expression level (DMPK [2]): reduced | reduction of DMPK expression in NHP myotubes (DMPK [3]): dose-dependently reducing DMPK | reduction of DMPK expression in DM1 myotubes (DMPK [4]): dose-dependently reducing DMPK

Substance: CCTTCTCTCTGCCTCTCAGCTT (SEQ ID NO: 312) (all phosphorodiamidate morpholino (PMO)) [PMO 4, DMPK-targeting PMO, intron 1-2]
% DMPK Knockdown in Primary Human Myotubes (DMPK [1]): 58%

Substance: CGGAGCTCACCAGGTAGTTCT (SEQ ID NO: 325) (all phosphorodiamidate morpholino (PMO)) [PMO 40, DMPK-targeting PMO, Intron 4-5]
% DMPK Knockdown in Primary Human Myotubes (DMPK [1]): 73%

Substance: GAGAAGGAAATAAGACCCAGTT (SEQ ID NO: 311) (all phosphorodiamidate morpholino (PMO)) [PMO 3, DMPK-targeting PMO, intron 1-2]
% DMPK Knockdown in Primary Human Myotubes (DMPK [1]): 14%

Substance: GCCTAGGGACCTGCGGGAGAG (SEQ ID NO: 321) (all phosphorodiamidate morpholino (PMO)) [PMO 13, DMPK-targeting PMO, Exon 15]
% DMPK Knockdown in Primary Human Myotubes (DMPK [1]): 62%

Substance: GCCTTTTATTCGCGAGGGTCGG (SEQ ID NO: 322) (all phosphorodiamidate morpholino (PMO)) [PMO 14, DMPK-targeting PMO, polyA]
% DMPK Knockdown in Primary Human Myotubes (DMPK [1]): 73%

Substance: GCGUAGAAGGGCGUCUGCCC (SEQ ID NO: 329) (chemistry not given here) [DMPK-ASO-1, DMPK-targeting antisense oligonucleotide]
DMPK expression level (DMPK [2]): reduced | reduction of DMPK expression in NHP myotubes (DMPK [3]): dose-dependently reducing DMPK | reduction of DMPK expression in DM1 myotubes (DMPK [4]): dose-dependently reducing DMPK

Substance: GGCCAAACCUCGGCUUACCUGAAAU (SEQ ID NO: 261) (PMO chemistry, chemistry not fully specified) [MDX-ASO, naked exon 23 skipping PMO ASO]
distance traveled on running wheel during the dark period (mdx mice [5]): traveled considerably shorter distances | average less distance traveled during stage (3) relative to stage (1), open field (mdx mice [6]): about 85% | creatine kinase activity (creatine kinase): no significant benefit

Substance: GGGCATTTTAATATATCTCTGAACT (SEQ ID NO: 260) (PMO chemistry, chemistry not fully specified) [naked FM10, phosphorodiamidate morpholino oligomer (PMO) targeting DUX4]
expression of three DUX4-associated genes (DUX4 [7]): reduced | IC50 (DUX4 [7]; MBD3L2 transcript, read-out: IC50 (nM), MBD3L2): 1210 nM | IC50 (DUX4 [7]; TRIM43 transcript, read-out: IC50 (nM), TRIM43): 1120 nM | IC50 (DUX4 [7]; ZSCAN4 transcript, read-out: IC50 (nM), ZSCAN4): 643 nM | ZSCAN4, MBD3L2, and TRIM43 expression (DUX4 [8]; 1 µM): fails to reduce | MDB3L2 expression (DUX4 [8]; 10 µM): no effect | ZSCAN4 and TRIM43 expression (DUX4 [8]; 10 µM): modest reduction

Substance: TAGGCACTCACCCACTGCAAGA (SEQ ID NO: 324) (all phosphorodiamidate morpholino (PMO)) [PMO 39, DMPK-targeting PMO, Exon 1]
% DMPK Knockdown in Primary Human Myotubes (DMPK [1]): 69%

Substance: TAGGGACCTGCGGAGAGGGCGA (SEQ ID NO: 320) (all phosphorodiamidate morpholino (PMO)) [PMO 12, DMPK-targeting PMO, Exon 15]
% DMPK Knockdown in Primary Human Myotubes (DMPK [1]): 35%

Substance: TCCACCCTGACTCCAGGTGAC (SEQ ID NO: 310) (all phosphorodiamidate morpholino (PMO)) [PMO 2, DMPK-targeting PMO, intron 1-2]
% DMPK Knockdown in Primary Human Myotubes (DMPK [1]): 16%

Substance: TCCGCTGGGTGGTGGGAAAAGAA (SEQ ID NO: 314) (all phosphorodiamidate morpholino (PMO)) [PMO 6, DMPK-targeting PMO, Exon 2]
% DMPK Knockdown in Primary Human Myotubes (DMPK [1]): 9%

Substance: TGGAGGGCCTTTTATTCGCGAGG (SEQ ID NO: 323) (all phosphorodiamidate morpholino (PMO)) [PMO 15, DMPK-targeting PMO, polyA]
% DMPK Knockdown in Primary Human Myotubes (DMPK [1]): 66%

Kd [9]: 0.536 nM | kon [9]: 774000 M⁻¹ s⁻¹
Substance: anti-TfR1 antibody OKT9 (mouse IgG, control)
